The source of these data is patent publication US9809586B2, “Inhibitors of collagen prolyl 4-hydroxylase” (WISCONSIN ALUMNI RESEARCH FOUNDATION, priority 2015, dated 2017).

Molecules are shown by their SMILES.

A word on the EC50: it is the concentration that produces a half-maximal response. Read a low EC50 as an effect from little substance. Broadly, the pKa is the negative logarithm of the acid dissociation constant.

The nature of series [1]: Assay of Fe(II)-affinity for biheteroaryl ligands (Fe20-EC50 titration, spectrophotometry). The series is classed as physicochemical. Conditions: titration of 20 μM FeSO4, pH 7; mean (±SE) of three replicates. The protocol:
A library of biheteroaryl compounds (FIG. 2) was prepared and evaluated them as iron chelators in vitro. The library was assembled either from commercial vendors (pypyr and pyim) or by synthesis using palladium-catalyzed cross-coupling reactions (pypyraz, pypyrid, pyox, and pythi). To evaluate the iron affinity of these compounds in vitro, titration experiments were performed to determine the half-maximal concentration required to form a complex with 20 μM Fe(II) at pH 7.0.
The affinity of biheteroaryl ligands for Fe(II) was determined comparatively by measuring the half-maximal concentration (EC50) required for binding 20 μM Fe(II) (Fe20-EC50) in sodium phosphate buffer at pH 7. Stock solutions of ligands were prepared in either water for high affinity ligands (typically Fe20-EC50<1 mM) or DMSO for low affinity ligands (typically Fe20-EC50>1000 μM). Stock solutions of FeSO4 were prepared in H2O and used within 3 hours of preparation. […] For high affinity ligands, solutions were allowed to equilibrate for 15 min, after which the absorbance was recorded at the λmax for the complex under study. For most low affinity ligands, the corresponding Fe(II) complexes were unstable and observed to dissociate over time. Therefore, the absorbance value was determined within 30 s of mixing, where the absorbance was measured at the λmax for the complex under study. Complexes with pyox were not observed under these conditions. Absorbance values were corrected by subtracting the absorbance value in the absence of ligand. Dose-response curves were generated for each ligand by plotting the absorbance versus the log of the ligand concentration. Fe20-EC50 values for each ligand were interpolated from the dose-response curves by non-linear regression using the sigmoidal dose-response function in Prism. All experiments were performed in triplicate.

The conditions of series [2]: conjugate acid of pyridine (bipy) or the nonpyridyl ring; cited from earlier work.
Series [3] is described as follows: Estimate of pKa by potentiometric titration. The series is classed as physicochemical. Conditions: water; conjugate acid, estimated by titration of the entire compound. The protocol: The pKa value of biheteroaryl compounds was estimated with potentiometric titration. Compounds (5-10 mM) were dissolved in water and the pH was adjusted to ˜12 by adding 10 M NaOH. The pH of the solution was recorded with an Accumet™ XL500 pH meter equipped with an Orion 912600® pH electrode from Thermo Fisher Scientific while titrating the solution with HCl (1 M or […], as necessary) until a pH value of ˜1.75 was achieved. Titration curves were prepared by plotting the solution pH versus the volume of 1 M HCl added, and pKa values were estimated from derivative plots of the titration curves using Prism software.

The target in series [4] is T1, human CP4H1 (Homo sapiens, UniProt P13674).
T1 construct: made in house; host or cells: Origami B(DE3) Escherichia coli
T1 sequence (P13674 18-534): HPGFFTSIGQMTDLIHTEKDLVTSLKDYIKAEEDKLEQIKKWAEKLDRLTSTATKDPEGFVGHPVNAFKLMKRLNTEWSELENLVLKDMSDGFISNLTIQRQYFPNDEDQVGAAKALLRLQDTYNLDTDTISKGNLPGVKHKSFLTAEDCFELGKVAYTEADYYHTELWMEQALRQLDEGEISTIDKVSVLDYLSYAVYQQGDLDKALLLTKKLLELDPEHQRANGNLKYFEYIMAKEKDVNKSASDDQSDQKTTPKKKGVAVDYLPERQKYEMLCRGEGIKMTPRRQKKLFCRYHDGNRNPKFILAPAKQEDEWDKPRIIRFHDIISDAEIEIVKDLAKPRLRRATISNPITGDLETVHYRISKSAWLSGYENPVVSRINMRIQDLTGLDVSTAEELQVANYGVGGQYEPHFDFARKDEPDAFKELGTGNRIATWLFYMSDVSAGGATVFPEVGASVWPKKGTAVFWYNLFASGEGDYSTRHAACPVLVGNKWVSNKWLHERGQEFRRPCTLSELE
T1 sequence (P07237 18-508 partner): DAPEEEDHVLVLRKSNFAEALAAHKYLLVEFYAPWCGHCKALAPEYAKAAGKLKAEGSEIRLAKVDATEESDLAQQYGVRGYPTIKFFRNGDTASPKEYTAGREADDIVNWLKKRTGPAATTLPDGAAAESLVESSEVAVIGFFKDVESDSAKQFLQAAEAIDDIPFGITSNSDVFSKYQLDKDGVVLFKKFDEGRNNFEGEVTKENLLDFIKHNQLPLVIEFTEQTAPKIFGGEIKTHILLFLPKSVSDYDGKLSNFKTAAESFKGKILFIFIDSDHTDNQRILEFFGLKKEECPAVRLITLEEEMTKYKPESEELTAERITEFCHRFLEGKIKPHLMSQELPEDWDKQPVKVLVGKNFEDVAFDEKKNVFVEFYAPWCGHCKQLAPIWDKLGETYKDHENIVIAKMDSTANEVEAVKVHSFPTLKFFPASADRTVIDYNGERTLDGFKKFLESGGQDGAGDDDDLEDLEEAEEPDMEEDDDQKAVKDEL
In words: Assay of human CP4H1 activity in the presence of inhibitors. To be noted: 10 μM compound, 50 μM FeSO4. The series is classed as biochemical. The protocol: The catalytic activity of human CP4H1 was assayed as described previously.^35 Briefly, activity assays were carried out at 30° C. in 100 μL Tris-HCl buffer, pH 7.8, containing human CP4H1 (100 nM), inhibitor (0-500 μM), substrate (dansylGlyProProGlyOEt, 500 μM), FeSO4 (50 μM), BSA (1 mg/mL), catalase (0.1 mg/mL), sodium ascorbate (2 mM), DTT (100 μM), and α-ketoglutarate (100 μM). Reactions were pre-incubated with or without inhibitor for 2 min at 30° C., after which the reaction was initiated by the addition of α-ketoglutarate. After 15 min, reactions were quenched by boiling for 45 s and centrifuged at 10,000 g. The supernatant (20-50 μL) was injected into a Nucleodur® C18 Gravity reversed-phase column (4.6×250 mm, 5 μm particle size) from Macherey-Nagel (Bethlehem, Pa.). The column was eluted at 1 mL/min with a gradient (20 min) of aqueous acetonitrile (20-45% v/v) containing 0.1% v/v TFA. The absorbance of the eluent was monitored at 289 nm. All assays were performed in triplicate. Data are reported as activity relative to control reactions lacking inhibitor, where catalytic activity is determined from the percent conversion of substrate to product. Dose-response curves were generated for each inhibitor by plotting the relative activity versus the log of the inhibitor concentration. IC50-values for each inhibitor were interpolated from the data by non-linear regression using the sigmoidal dose-response function available in Prism.

The test system of series [5] is MDA-MB-231 breast cancer cells. The series is described as follows: Effect on iron metabolism (immunoblots for ferritin, TfR, HIF-1α) in MDA-MB-231 cells. To be noted: for Iron deficient phenotype: MDA-MB-231 (231s), 100 μM, details in Vasta et al. 2015. (In western blotting, separated proteins are transferred to a membrane and probed.)
Protocol: (§1) MDA-MB-231 or HEK293T cells were plated at 50,000 cells/well into 12-well plates and grown to confluence (˜24 h) as described in Section X. The cells were washed, and the medium was replaced with 1.0 mL of serum-free medium. Stock solutions of all test compounds were prepared at 100× in DMSO and added to a final concentration of 1× (0.1-0.5 mM). After addition of the test compound or DMSO vehicle, cells were incubated for 24 h. The cells were then washed with 100 μL MPER solution from Thermo Fisher Scientific (Waltham, Mass.) and collected. Protein concentrations were determined by BCA assay (Thermo Fisher Scientific), and samples corresponding to 40 μg total protein were analyzed by immunoblot.
(§2) For all immunoblot analyses, protein samples where boiled in SDS-PAGE buffer, separated by electrophoresis through a Tris-glycine SDS-PAGE gel from Bio-Rad Laboratories (Hercules, Calif.), and subsequently transferred to a PVDF membrane for immunoblotting. All primary antibodies were used at the working dilution specified by the manufacturer. Primary antibodies were visualized using a complementary secondary antibody fused to horseradish peroxidase (HRP), with detection of HRP by chemiluminescence, imaging using an ImageQuant LAS 4000 (GE Healthcare), and quantification by densitometry (ImageJ software). The anti-rabbit antibody from Promega and the anti-mouse antibody from Abbiotec (San Diego, Calif.) were used at the working dilution specified by the manufacturer.
(§3) For investigations of iron metabolism, protein samples (40 μg) were separated by SDS-PAGE through a 12% w/v acrylamide gel, and blots were probed with primary antibodies to human ferritin (rabbit monoclonal) from Abcam (Cambridge, Mass.), human transferrin receptor (mouse monoclonal) from Invitrogen, human HIF-1α (mouse monoclonal) from BD Biosciences, and human β-actin (rabbit monoclonal) from Cell Signaling Technology (Danvers, Mass.). Quantifications were normalized to the signal from β-actin, after which treated samples were compared to vehicle-treated controls.
Series [6] concerns MDA-MB-231 cells. In words: Cytotoxicity assay (MTS). Conditions: MDA-MB-231, 24 h; higher than aqueous solubility limit. Format: cell-based. The protocol:
The toxicity of esterified biheteroaryl compounds for human breast cancer cells was evaluated with the CellTiter 96® AQueous One Solution Cell Proliferation Assay (MTS) from Promega (Madison, Wis.). Briefly, MDA-MB-231 cells grown as described in Section X were plated at a concentration of 5,000 cells/well in a clear 96-well plate. The cells were allowed to adhere for 4 h, after which the medium was removed and discarded. Fresh medium was added and the cells were treated with varying concentrations of the test compound at 37° C. for 24 h. The medium was removed, and cells were washed with Dulbecco's PBS. The MTS reagent was added at a ratio of 1:5, and the cells were incubated at 37° C. for 2 h before measuring the absorbance at 490 nm. The average absorbance was measured in triplicate for each concentration tested, and the entire experiment was repeated in duplicate. The percentage of viable cells was determined by normalizing to a PBS control (100% viable), and a H2O2 control (0% viable). For all of the compounds tested, the LD50-value could not be measured due to its being higher than the aqueous solubility limit: diethyl bipy55′DC, LD50>100 μM; diethyl pyimDC, LD50>1000 μM; diethyl pythiDC, LD50>500 μM.

Series [7] has as its system HEK293T cells. In words: Effect on iron metabolism (immunoblots for ferritin, TfR, HIF-1α) in HEK293T cells. To be noted: for Iron deficient phenotype: HEKs, 100 μM, details in Vasta et al. 2015; for Level of TFR, HIF-1α, or ferritin: HEK cells, diethyl pyimDC at low levels. The series is classed as cell-based, human.
Protocol: as §1, §2, §3
For series [8], the system named is IRPs. The series is described as follows: Electrophoretic mobility shift assay for IRE-binding by IRPs from treated cells. To be noted: treated MDA-MB-231 cells, 24 h, radiolabeled RNA ligand. The series is classed as cell-based, human. The protocol:
The resultant pellets (˜50 μL) were washed with PBS and then lysed using a protocol described previously.^41 Briefly, cell pellets were resuspended in 200 μL of cell lysis buffer, which was 20 mM Hepes-HCl buffer, pH 7.4, containing sodium pyrophosphate (10 mM), sodium fluoride (50 mM), β-glycerophosphate (50 mM), EDTA (5 mM), GTP (1 mM), sodium orthovanadate (1 mM), benzamidine hydrochloride (2 mM), Nonidet NP-40 (0.5% v/v), p-nitrophenyl p′-guanidinobenzoate-HCl (25 μg/mL), DTT (1 mM), leupeptin (40 μg/mL), pepstatin (4 μg/mL), SBTI (100 μg/mL), MG132 (10 μM), PMSF (200 μM), and BHT (5 μg/mL) by vortexing and lysed on ice by vortexing every few min. After 15 min, the lysates were centrifuged at 14,000 rpm and the supernatants aliquoted and stored at −80° C. until analysis by an electrophoretic mobility shift assay (EMSA).
EMSAs were performed and quantified essentially as described previously.^42 Briefly [^32P]-L-ferritin IRE (1 nM RNA, specific radioactivity ˜7,000 dpm/fmol) was incubated with lysate protein (2.5 μg as determined by the Bradford assay) in binding buffer for 10 min on ice. Heparin was added (to 0.5 mg/mL), and the reaction mixture was incubated for an additional 5 min on ice before separating bound and free RNA on a nondenaturing polyacrylamide gel at ambient temperature.
Background: A gel shift assay detects complexes by their altered migration in electrophoresis.

For series [9], the system named is P4HA1. In words: Effect on P4HA1 levels (immunoblot). Format: cell-based, human. Conditions: MDA-MB-231. The method, then: For investigations of P4HA1 levels, protein samples were treated and quantified as described above for iron metabolism except that the blots were probed with primary antibodies to human P4HA1 (rabbit polyclonal) from Thermo Fisher Scientific and human β-actin.

The test system of series [10] is MDA-MB-231 cells. The series is described as follows: Effect on secretion of type I collagen into conditioned media. The series is classed as cell-based, human. The protocol:
For investigations of collagen secretion, protein samples were separated by SDS-PAGE through a 7.5% w/v acrylamide gel. Blots were first stained for total protein using Ponceau S, after which they were probed with a primary antibody to human type-I collagen (α1) (rabbit polyclonal) from Novus Biologicals (Littleton, Colo.).
After the addition of a test compound or vehicle (DMSO), cells were incubated for 48 h, after which 1.0 mL of conditioned medium was removed and added to 4.0 mL of chilled acetone (−20° C.). The resultant mixtures were incubated for 3 h at −20° C., after which the precipitated protein was pelleted by centrifugation at 10,000 g for 30 min. The supernatants were discarded and the pellets dried briefly in a fume hood. Pellets were stored at −20° C. prior to analysis with an immunoblot.

Compound `c1ccc(-c2cc[nH]n2)nc1` [pypyr, 2-(1H-pyrazol-3-yl)pyridine, reference compound] yielded an EC50 in series [1] of 2250 ± 100 µM. Further, the “Heteroaryl pKa (ref.)” value in series [2] was 2.5 (52). Moreover, in series [3], the pKa was 4.1.

As to `O=C(O)c1ccc(-c2cc(C(=O)O)[nH]n2)nc1` [pypyrDC, 2-(5-Carboxy-1H-pyrazol-3-yl)pyridine-5-carboxylic Acid], the “Inhibition of catalytic activity of human CP4H1 in initial screen” value (shortened to “Inhibition”) in series [4] is listed as “modest activation”.

Turning to `CCOC(=O)c1ccc(-c2ccc(C(=O)OCC)cn2)nc1` [diethyl bipy55′DC, Diethyl 2,2′-bipyridine-5,5′-dicarboxylate, reference compound], the Iron deficient phenotype result in [5] and in series [7] was “did not cause iron deficiency” in each case. Moreover, in [6], the LD50 is over 100 µM.

With `O=C(O)c1ccc(-c2ccc(C(=O)O)nn2)nc1` [pypyridDC, 6-(5-Carboxypyridin-2-yl)pyridazine-3-carboxylic Acid], the “Inhibition” value in [4] is “modest activation”.

Consider `c1ccc(-c2ncco2)nc1` [pyox, 2-(Oxazol-2-yl)pyridine], for which the concentration giving a half-maximal response (EC50) in [1] was over 18000 µM. Moreover, the “Heteroaryl pKa (ref.)” value in series [2] is given as 0.8 (54). Also, the pKa in series [3] was under 3.

With `c1ccc(-c2cnccn2)nc1` [pypyraz, 2-(Pyridin-2-yl)pyrazine], the EC50 in series [1] stood at 400 ± 7 µM. In addition, in [2], the “Heteroaryl pKa (ref.)” value is on record as 0.8 (50). Further, the pKa in [3] is under 3.

As for `c1ccc(-c2cccnn2)nc1` [pypyrid], a half-maximal effect in series [1] (EC50) was put at 124 ± 1 µM. Further, in series [2], the “Heteroaryl pKa (ref.)” value is 2.3 (49). Moreover, in series [3], the pKa is under 3.

With `c1ccc(-c2ncc[nH]2)nc1` [pyim, 2-(1H-Imidazol-2-yl)pyridine, reference compound], the EC50 in series [1] is 900 ± 30 µM. In addition, in series [7], the “Level of TFR, HIF-1α, or ferritin” value is listed as “did not affect”. Moreover, the “Heteroaryl pKa (ref.)” value in series [2] is on record as 7.1 (51). Besides, in series [3], the pKa was 5.4.

In the case of `Cn1c(C(=O)O)cnc1-c1ccc(C(=O)O)cn1` [NMe-pyimDC, 2-(5-Carboxy-1-methyl-1H-imidazol-2-yl)pyridine-5-carboxylic Acid], the “Inhibition” value in series [4] was “potency is less than that of pyimDC”.

In series [1], `c1ccc(-c2nccs2)nc1` [pythi, 2-(Thiazol-2-yl)pyridine] came in with an EC50 of 5100 ± 100 µM. Also, in series [7], the “Level of TFR, HIF-1α, or ferritin” value is given as “did not affect”. Further, the “Heteroaryl pKa (ref.)” value in series [2] is 2.5 (53). The pKa in [3] was under 3.

Consider `CCOC(=O)c1ccc(-c2ncc(C(=O)OCC)s2)nc1` [diethyl pythiDC, Ethyl 2-(5-ethoxycarbonylthiazol-2-yl)pyridine-5-carboxylate], for which, in [5] (MDA-MB-231, 24 h), the “Concentration at which no iron-deficient phenotype is observed” value was at most 500 µM. Further, in series [5] (MDA-MB-231, 24 h, EDHB 500 μM, diethyl pythiDC up to 500 μM), the “Iron-deficiency phenotype of treated cells” value is recorded as “normal”. The “RNA binding by IRPs” value in series [8] is listed as “did not”. For the same compound, the “Levels of human CP4H1 (P4HA1) itself” value in series [9] is “did not appear to affect”. The “Efficacy on collagen secretion compared with diethyl bipy55′DC” value in series [10] (MDA-MB-231) is reported as “indistinguishable”. The “Level of secreted type I collagen” value in series [10] (MDA-MB-231, 48 h, conditioned media) is given as “reduced the level of secreted collagen significantly”. In addition, the LD50 in [6] is over 500 µM. Further, the “Level of TFR, HIF-1α, or ferritin” value in series [7] is listed as “did not affect”.

As to `CCOC(=O)c1ccc(-c2cc(C(=O)OCC)ccn2)nc1` [diethyl bipy45′DC, Diethyl 2,2′-bipyridine-4,5′-dicarboxylate, reference compound], the Iron deficient phenotype entry in series [5] and in [7] was “did not cause iron deficiency” in each case.

Turning to `CCOC(=O)c1ccnc(-c2cc(C(=O)OCC)ccn2)c1` [diethyl bipy44′DC, reference compound], the Iron deficient phenotype result in series [5] and in series [7] was “distinct iron deficient phenotype” in each case.
